In patent US11485728B2, “Small molecules for the treatment of autoimmune diseases and cancer” (Athos Therapeutics, Inc., priority 2020, dated 2022):

Experiments:
[1] = In-vitro half-life in rat liver microsomes; type: in vitro ADME; details: Rat liver microsomes 0.5 mg/mL; 1 μg/mL drug; NRS; read-out: Metabolic Half-life
Description: In each of the species (human, rat, mouse) of liver matrix to be tested, a working concentration of 2 μg/mL was prepared of each test article from the 0.5 mg/mL DMSO stock solution by adding 3 μL of 0.5 mg/mL test article stock solution to 747 μL of the 1 mg/mL liver matrix. Incubation was performed at 37±2° C. with gentle, continuous mixing in shaking water bath in 2.0 mL-well capacity 96-Deepwell plates (96-DWP). Samples were retrieved in duplicate at the following time points: 0, 5, 10, 15, 30 and 60 minutes. The final mixture contained 1 μg/mL of drug and 0.5 mg/mL of liver matrix. First, 50 μL of test articles in liver matrix was added to the 96-DWP and pre-warmed the mixture in the 96-DWP for 2 minutes in the 37° C. water bath. The enzymatic reaction was started by the addition of 50 μL of the corresponding 2× NADPH regenerating system (NRS) cofactor solution to all sample wells and stopped by the addition of 300 μL of stop solution (acetonitrile containing 10 ng/mL Tolbutamide as an internal standard (I.Std.). The samples were agitated for 10 minutes and then centrifuged for 20 minutes at 4500 rpm. 25 μL of supernatant was diluted with 475 μL acetonitrile containing I. Std. into a new 96-DWPs for LC-MS/MS analysis.
Half-life calculations were generated and calculated by Graphpad Prism® software. The half-life of test compound was calculated based on the first-order reaction kinetics. The data was transformed to linear regression (y=log(y) where “y” axis represents the % compound remaining at any given time with respect to time 0 minutes; “x” axis represents time in minutes) in order to calculate the half-life.
A comparison of metabolic stability in time-course incubation experiments in varying species of liver can provide information of pharmacokinetic properties of drugs attributable to species-related differences in hepatic metabolism. The results of these experiments often assist in further applications such as assessing in vitro metabolite profiling and choosing relevant species for toxicology studies based on similarities relative to the metabolic stability to the human profile. For these experiments, the test compound was tested in parallel with a positive control, Dasatinab, in an enzymatic reaction solution of each species (human and rat) of liver microsomes containing a NADPH regenerating system (NRS). The final mixture contained 1 μg/mL of drug and 0.5 mg/mL of liver matrix. Incubations were performed at 37±2° C. with gentle, continuous mixing in shaking water bath in 96-Deep well plates. The stability of the test compound is monitored using fast, specific and sensitive LC/MS/MS analysis.

[2] = system: C57BL/6 mice with DSS colitis; assay: DSS colitis in C57BL/6 mice; type: in vivo; details: 25 mg/kg PO daily; on Clinical Score: key: −: indicates no statistically significant effect in the variable measured when compared with the control group; +: indicates a statistically significant difference in the variable measured when compared with the control group; ++: indicates measurements that include multiple variables in the calculation of their differences when compared with the control group, and represents the presence of significant changes across all variable measurements; on Colon Length: key: −: indicates no statistically significant effect in the variable measured when compared with the control group; +: indicates a statistically significant difference in the variable measured when compared with the control group; ++: indicates measurements that include multiple variables in the calculation of their differences when compared with the control group, and represents the presence of significant changes across all variable measurements
Description: Dextran sodium sulfate (DSS) was added to the water 24 hrs after compound administration and weight was measured daily.
C57BL/6 mice (20-22 grams) were fed ad lib and assigned to 4 different groups (n=8/group). […] A control group received vehicle alone. After 24 hrs, mice were weighed and DSS was added to their drinking water. Mice were then treated with the test compounds and weighed daily and the DSS water was replenished every 72 hrs for 5 days, at which point, it was replaced by regular drinking water. Mice were sacrificed on day twelve and clinical scored was assessed. Intestinal tissue for and blood were also collected. Tissues were either flash frozen and kept in −80° C. for RNA and protein isolation or placed in 10% formalin solution for future histological analysis. Blood was spun at 5K rpm for 5 min and serum was collected and kept at −20° C. for multiplex cytokine analysis.
DSS colitis mouse model: C57BL/6 mice (20-22 grains) are fed ad lib and assigned to different groups (n=8/group). […] A control group receives vehicle alone. After 24 h, mice are weighed and DSS is added to their drinking water. Mice are then treated with the test compounds and weighed daily and the DSS water is replenished every 72 liars for 5 days, at which point, it is replaced by regular drinking water. Mice are sacrificed on day twelve and clinical scored was assessed. Intestinal tissue for and blood are also collected. Tissues are either flash frozen and kept in −80° C. for RNA and protein isolation or placed in 10% formalin solution for future histological analysis.

SMILES | half-life at 1 μg/mL [1] [h] | other results
COc1cc2c(NC3CCS(=O)(=O)CC3)nc(N3CCN(C)CC3)nc2cc1OCCCN1CCCC1 [Compound 109, 4-((6-methoxy-2-(4-methylpiperazin-1-yl)-7-(3-(pyrrolidin-1-yl)propoxy)quinazolin-4-yl)amino)tetrahydro-2H-thiopyran 1,1-dioxide] | > 1 | –
COc1cc2c(NC3CCS(=O)(=O)CC3)nc(N3CCCN(C)CC3)nc2cc1OCCCN1CCCC1 [Compound 110, 4-((6-methoxy-2-(4-methyl-1,4-diazepan-1-yl)-7-(3-(pyrrolidin-1-yl)propoxy)quinazolin-4-yl)amino)tetrahydro-2H-thiopyran 1,1-dioxide] | > 1 | –
COc1cc2c(Nc3ccncc3)nc(-n3ccnc3)nc2cc1OCCCN1CCCC1 [Compound 130, 2-(1H-imidazol-1-yl)-6-methoxy-N-(pyridin-4-yl)-7-(3-(pyrrolidin-1-yl)propoxy)quinazolin-4-amine] | > 1 | –
COc1cc2c(NC3CCN(C(C)C)CC3)nc(-n3cccn3)nc2cc1OCCCN1CCCC1 [Compound 157, N-(1-isopropylpiperidin-4-yl)-6-methoxy-2-(1H-pyrazol-1-yl)-7-(3-(pyrrolidin-1-yl)propoxy)quinazolin-4-amine] | > 1 | –
COc1cc2c(NC3CCOCC3)nc(N3CCOCC3)nc2cc1OCCCN1CCCC1 [Compound 195, 6-methoxy-2-morpholino-7-(3-(pyrrolidin-1-yl)propoxy)-N-(tetrahydro-2H-pyran-4-yl)quinazolin-4-amine] | > 1 | –
COc1cc2c(NC3CCOCC3)nc(N3CCN(C)CC3)nc2cc1OCCCN1CCCC1 [Compound 236, 6-methoxy-2-(4-methylpiperazin-1-yl)-7-(3-(pyrrolidin-1-yl)propoxy)-N-(tetrahydro-2H-pyran-4-yl)quinazolin-4-amine] | > 1 | –
COc1cc2c(NC3CCOCC3)nc(N3CCCN(C)CC3)nc2cc1OCCCN1CCCC1 [Compound 237, 6-methoxy-2-(4-methyl-1,4-diazepan-1-yl)-7-(3-(pyrrolidin-1-yl)propoxy)-N-(tetrahydro-2H-pyran-4-yl)quinazolin-4-amine] | 0.367 | –
COc1cc2c(NC3CCS(=O)(=O)CC3)nc(N3CCC(F)(F)CC3)nc2cc1C#CCN1CCCC1 [Compound 248, 4-((2-(4,4-difluoropiperidin-1-yl)-6-methoxy-7-(3-(pyrrolidin-1-yl)prop-1-yn-1-yl)quinazolin-4-yl)amino)tetrahydro-2H-thiopyran 1,1-dioxide] | 0.282 | –

Continued, in another order:

half-life at 1 μg/mL [1] [h] | SMILES | other results
> 1 | COc1cc2c(NCC3CCN(C)CC3)nc(N3CCC(F)(F)CC3)nc2cc1OCCCN1CCCC1 [Compound 5, 2-(4,4-difluoropiperidin-1-yl)-6-methoxy-N-((1-methylpiperidin-4-yl)methyl)-7-(3-(pyrrolidin-1-yl)propoxy)quinazolin-4-amine] | effect on the effects of DSS colitis (in words) [2]: alleviation of the effects of DSS colitis; Colon Length ([2]; day twelve): +; Clinical Score ([2]; day twelve, includes weight, bleeding, diarrhea, rectal prolapse): +; DSS Efficacy ([2]; sacrificed day twelve): +
> 1 | COc1cc2c(NC3CCNCC3)nc(N3CCC(F)(F)CC3)nc2cc1OCCCN1CCCC1 [Compound 8, 2-(4,4-difluoropiperidin-1-yl)-6-methoxy-N-(piperidin-4-yl)-7-(3-(pyrrolidin-1-yl)propoxy)quinazolin-4-amine] | –
> 1 | COc1cc2c(NCC(N)=O)nc(N3CCC(F)(F)CC3)nc2cc1OCCCN1CCCC1 [Compound 9, 2-((2-(4,4-difluoropiperidin-1-yl)-6-methoxy-7-(3-(pyrrolidin-1-yl)propoxy)quinazolin-4-yl)amino)acetamide] | –
> 1 | COc1cc2c(NC3COC3)nc(N3CCC(F)(F)CC3)nc2cc1OCCCN1CCCC1 [Compound 11, 2-(4,4-difluoropiperidin-1-yl)-6-methoxy-N-(oxetan-3-yl)-7-(3-(pyrrolidin-1-yl)propoxy)quinazolin-4-amine] | –
> 1 | COc1cc2c(NC3CCS(=O)(=O)CC3)nc(N3CCCC3)nc2cc1OCCCN1CCCC1 [Compound 80, 4-((6-methoxy-2-(pyrrolidin-1-yl)-7-(3-(pyrrolidin-1-yl)propoxy)quinazolin-4-yl)amino)tetrahydro-2H-thiopyran 1,1-dioxide] | –
> 1 | COc1cc2c(NC3CCS(=O)(=O)CC3)nc(N3CCOCC3)nc2cc1OCCCN1CCCC1 [Compound 102, 4-((6-methoxy-2-morpholino-7-(3-(pyrrolidin-1-yl)propoxy)quinazolin-4-yl)amino)tetrahydro-2H-thiopyran 1,1-dioxide] | –
> 1 | COc1cc2c(NC3CCS(=O)(=O)CC3)nc(N3CCS(=O)(=O)CC3)nc2cc1OCCCN1CCCC1 [Compound 103, 4-(4-((1,1-dioxidotetrahydro-2H-thiopyran-4-yl)amino)-6-methoxy-7-(3-(pyrrolidin-1-yl)propoxy)quinazolin-2-yl)thiomorpholine 1,1-dioxide] | –
0.55 | COc1cc2c(N[C@H]3CCCNC3)nc(N3CCCC3)nc2cc1OCCCN1CCCC1 [Compound 158, (S)-6-methoxy-N-(piperidin-3-yl)-2-(pyrrolidin-1-yl)-7-(3-(pyrrolidin-1-yl)propoxy)quinazolin-4-amine] | –
0.555 | COc1cc2c(N[C@@H]3CCCNC3)nc(N3CCCC3)nc2cc1OCCCN1CCCC1 [Compound 159, (R)-6-methoxy-N-(piperidin-3-yl)-2-(pyrrolidin-1-yl)-7-(3-(pyrrolidin-1-yl)propoxy)quinazolin-4-amine] | –
> 1 | COc1cc2c(NC3CCOCC3)nc(N3CCS(=O)(=O)CC3)nc2cc1OCCCN1CCCC1 [Compound 196, 4-(6-methoxy-7-(3-(pyrrolidin-1-yl)propoxy)-4-((tetrahydro-2H-pyran-4-yl)amino)quinazolin-2-yl)thiomorpholine 1,1-dioxide] | –
